pIC50: −log10 of the molar value. Active and inactive are the calls of the source. The calls are words filed in the database; no cut-off is given here.
What was measured:
[1] = target: Integrin alpha-5/beta-1 (Homo sapiens) (UniProt P05556+P08648); experiment: Cell adhesion activity against alpha5-beta1 integrin; type: protein-complex assay
Homo sapiens = species: Homo sapiens; experiment: Efficacy of compound in cell migration of primary human Smooth Muscle Cells (SMC) was determined; type: functional
[2] = target: T1, Integrin alpha-IIb/beta-3 (Homo sapiens, UniProt P05106+P08514); experiment: Selectivity against Integrin alpha-IIb beta-3 receptor versus fibrinogen; Not active; type: protein-complex assay
[3] = target: T2, Integrin alpha-4/beta-1 (Homo sapiens) (UniProt P05556+P13612); experiment: Cell adhesion activity against alpha4-beta1 integrin at 10 e-5M (not active); type: protein-complex assay
Integrin alpha-V/beta-3 = Integrin alpha-V/beta-3 (Homo sapiens, UniProt P05106+P06756); experiment: Selectivity against alphaV-beta3 integrin; type: protein-complex assay
[4] = target: T2, Integrin alpha-4/beta-1 (Homo sapiens); experiment: Cell adhesion activity against alpha4-beta1 integrin at 10e-5 M; type: protein-complex assay
[5] = target: T1, Integrin alpha-IIb/beta-3; experiment: Selectivity against alpha IIb beta-3 integrin; Not active; type: protein-complex assay

T1 sequence (P05106 27-788 limits assumed): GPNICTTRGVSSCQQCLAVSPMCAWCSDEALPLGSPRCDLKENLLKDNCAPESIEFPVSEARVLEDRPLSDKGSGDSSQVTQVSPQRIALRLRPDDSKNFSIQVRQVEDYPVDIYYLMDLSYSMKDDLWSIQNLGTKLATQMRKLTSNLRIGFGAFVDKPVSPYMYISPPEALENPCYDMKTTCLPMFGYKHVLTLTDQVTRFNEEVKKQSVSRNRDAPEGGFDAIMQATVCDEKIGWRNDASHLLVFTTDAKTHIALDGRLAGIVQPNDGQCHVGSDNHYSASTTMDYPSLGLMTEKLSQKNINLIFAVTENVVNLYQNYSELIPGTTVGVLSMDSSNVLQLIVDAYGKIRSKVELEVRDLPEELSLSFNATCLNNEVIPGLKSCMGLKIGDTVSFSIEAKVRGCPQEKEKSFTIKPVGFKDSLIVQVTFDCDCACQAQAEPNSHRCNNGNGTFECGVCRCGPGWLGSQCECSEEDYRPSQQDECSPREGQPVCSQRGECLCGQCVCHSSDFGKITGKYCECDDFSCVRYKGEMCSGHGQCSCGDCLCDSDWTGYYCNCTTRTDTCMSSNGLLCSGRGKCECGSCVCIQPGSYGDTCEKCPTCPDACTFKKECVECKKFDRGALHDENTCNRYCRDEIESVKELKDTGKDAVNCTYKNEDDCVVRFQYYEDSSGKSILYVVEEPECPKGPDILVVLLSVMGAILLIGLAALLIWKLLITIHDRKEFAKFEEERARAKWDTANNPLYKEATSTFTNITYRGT
T1 sequence (P08514 32-887 limits assumed): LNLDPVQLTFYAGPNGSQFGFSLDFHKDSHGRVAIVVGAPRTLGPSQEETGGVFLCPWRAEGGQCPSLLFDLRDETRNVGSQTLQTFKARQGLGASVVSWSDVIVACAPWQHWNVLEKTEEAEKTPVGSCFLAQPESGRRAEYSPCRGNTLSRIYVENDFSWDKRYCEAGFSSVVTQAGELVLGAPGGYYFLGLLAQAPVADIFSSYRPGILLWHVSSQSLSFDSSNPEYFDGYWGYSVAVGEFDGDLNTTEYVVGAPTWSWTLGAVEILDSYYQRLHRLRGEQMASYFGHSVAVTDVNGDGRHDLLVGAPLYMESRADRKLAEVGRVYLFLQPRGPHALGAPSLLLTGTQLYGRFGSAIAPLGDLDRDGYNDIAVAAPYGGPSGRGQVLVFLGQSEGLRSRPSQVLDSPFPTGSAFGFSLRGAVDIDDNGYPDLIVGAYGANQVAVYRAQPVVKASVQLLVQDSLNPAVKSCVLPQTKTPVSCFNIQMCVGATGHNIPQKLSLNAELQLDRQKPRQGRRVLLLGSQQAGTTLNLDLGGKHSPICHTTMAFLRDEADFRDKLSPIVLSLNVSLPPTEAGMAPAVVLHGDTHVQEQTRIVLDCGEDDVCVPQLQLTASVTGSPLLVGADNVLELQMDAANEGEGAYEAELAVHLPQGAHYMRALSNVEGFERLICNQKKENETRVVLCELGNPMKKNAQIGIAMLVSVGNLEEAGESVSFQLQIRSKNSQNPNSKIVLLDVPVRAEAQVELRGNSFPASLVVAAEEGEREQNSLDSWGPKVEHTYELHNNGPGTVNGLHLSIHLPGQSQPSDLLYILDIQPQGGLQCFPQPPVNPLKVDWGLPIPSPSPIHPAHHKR
T1 sequence (P08514 891-1039 limits assumed): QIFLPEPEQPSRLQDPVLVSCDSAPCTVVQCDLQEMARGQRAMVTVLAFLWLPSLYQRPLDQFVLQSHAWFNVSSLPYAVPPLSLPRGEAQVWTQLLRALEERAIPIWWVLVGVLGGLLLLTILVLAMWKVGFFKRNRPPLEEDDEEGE
Chain of Integrin alpha-V/beta-3 (P05106 27-788 limits assumed): as the sequence (P05106 27-788 limits assumed) above
Chain of Integrin alpha-V/beta-3 (P06756 31-889 limits assumed): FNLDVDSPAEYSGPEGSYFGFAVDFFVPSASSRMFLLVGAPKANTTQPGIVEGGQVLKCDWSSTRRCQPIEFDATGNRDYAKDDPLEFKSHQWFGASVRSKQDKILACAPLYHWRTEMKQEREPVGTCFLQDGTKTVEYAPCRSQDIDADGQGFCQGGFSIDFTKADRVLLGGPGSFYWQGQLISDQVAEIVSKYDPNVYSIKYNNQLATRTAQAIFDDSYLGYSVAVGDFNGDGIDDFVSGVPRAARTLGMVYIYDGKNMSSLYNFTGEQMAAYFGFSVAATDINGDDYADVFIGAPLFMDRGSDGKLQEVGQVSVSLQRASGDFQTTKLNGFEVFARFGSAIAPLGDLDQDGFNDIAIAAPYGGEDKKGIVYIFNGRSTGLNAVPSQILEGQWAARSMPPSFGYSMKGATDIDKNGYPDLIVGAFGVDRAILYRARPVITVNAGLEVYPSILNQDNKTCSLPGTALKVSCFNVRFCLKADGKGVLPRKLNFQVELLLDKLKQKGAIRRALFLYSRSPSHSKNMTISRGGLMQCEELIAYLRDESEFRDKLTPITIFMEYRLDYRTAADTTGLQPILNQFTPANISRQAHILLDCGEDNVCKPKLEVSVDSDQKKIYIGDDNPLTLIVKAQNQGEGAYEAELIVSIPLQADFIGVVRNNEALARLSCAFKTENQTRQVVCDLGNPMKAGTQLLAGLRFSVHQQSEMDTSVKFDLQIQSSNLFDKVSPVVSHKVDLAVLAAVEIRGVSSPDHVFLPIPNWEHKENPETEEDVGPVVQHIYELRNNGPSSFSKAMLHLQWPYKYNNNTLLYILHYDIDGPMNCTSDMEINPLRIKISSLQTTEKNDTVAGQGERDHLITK
Chain of Integrin alpha-V/beta-3 (P06756 891-1048 limits assumed): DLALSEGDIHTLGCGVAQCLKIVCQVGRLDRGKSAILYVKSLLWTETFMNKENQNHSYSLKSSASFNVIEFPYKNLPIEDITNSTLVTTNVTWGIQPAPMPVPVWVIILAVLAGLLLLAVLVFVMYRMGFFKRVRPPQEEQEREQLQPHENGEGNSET

Row | SMILES | inhibition [1] | pIC50 (Homo sapiens) | IC50 [2] | inhibition [3] | pIC50 (Integrin alpha-V/beta-3) | inhibition [4] | IC50 [5]
1 | O=C(CNC(=O)c1cnc(NC(=O)NCc2ccccc2)o1)NC[C@H](NC(=O)OCc1ccccc1)C(=O)O | inactive | 6.30 | Not Active | inactive | 8.74 |  | 
2 | O=C(CNC(=O)c1ccc(NC(=O)NCc2ccccc2)o1)NC[C@H](NC(=O)OCc1ccccc1)C(=O)O | inactive | 5.92 |  |  | 9.40 | 2% | Not Active

— ChEMBL document CHEMBL1135113 (Bioorg Med Chem Lett, 2002)
